We go through two compounds from patent US10759787B2, “Benzofuran derivative, preparation method thereof and use thereof in medicine” (Jiangsu Hengrui Medicine Co., Ltd., priority 2015, dated 2020).

One data set deals with Pfeiffer cells. In words: In vitro anti-tumor cell growth assay (CellTiter-Glo), Pfeiffer. In kind it is cell-based. Conditions: Homo sapiens, 120 h; Pfeiffer cells (A677G mutant), 5 days; read-out: IC50 for inhibiting the growth activity of tumor cells (Pfeiffer) in vitro.
Data set [1] is described as follows: Pharmacokinetics assay in SD rats after intragastrical administration. Conditions: both sexes, Sprague-Dawley, rat, plasma, po, 5 mg/kg. The class given is in vivo. The procedure: Test Example 3. Pharmacokinetics Assay of the Compounds of Examples 1, 2, 3 and 9 of the Present Invention
SD rats were used as test animals. The drug concentration in plasma at different time points was determined by LC/MS/MS after intragastrical administration of the compounds of Examples 1, 2, 3 and 9 to the rats. The pharmacokinetic behavior of the compounds of the present invention was studied and evaluated in rats.
16 healthy adult Sprague-Dawley (SD) rats, half male and half female, were purchased from SINO-BRITSH SIPPR/BK LAB. ANIMAL LTD., CO, with Certificate No.: SCXK (Shanghai) 2008-0016.
The appropriate amount of each compound was weighed, and added with 0.5% CMC-Na (containing 1% Tween 80) to prepare a 1.0 mg/mL suspension by grinding.
After an overnight fast, 16 SD rats were divided into 4 groups equally, half male and half female, and administered intragastrically the test compounds at an administration volume of 5 mL/kg.
Blood (0.2 mL) was taken from the orbital sinus before administration and at 0.5, 1.0, 2.0, 4.0, 6.0, 8.0, 11.0, and 24.0 hours after administration. The samples were stored in heparinized tubes, and centrifuged for 10 minutes at 3,500 rpm to separate the blood plasma. The plasma samples were stored at −20° C.
The plasma concentration of the test compounds in rat plasma after intragastric administration was determined by LC-MS/MS.
Pharmacokinetic parameters of the compounds of Examples 1, 2, 3 and 9 of the present invention are shown below: […]

The subject of another data set is WSU-DLCL2 cells. In words: In vitro anti-tumor cell growth assay (CellTiter-Glo), WSU-DLCL2. Conditions: Homo sapiens, WSUDLCL2, 120 h; WSU-DLCL2 cells (Y641F mutant), 5 days; read-out: IC50 for inhibiting the growth activity of tumor cells (WSU-DLCL2) in vitro. The class given is cell-based. The procedure: Test Example 2. Assay for Determining In Vitro Anti-Tumor Cell Growth Activity of the Example Compounds of the Present Invention
This method was used to determinate the inhibitory effect of the compounds of the present invention on the growth activity of tumor cells (Pfeiffer or WSU-DLCL2) in vitro. Pfeiffer cells carry A677G mutant, and WSU-DLCL2 cells carry Y641F mutant.
The lymphoma suspension cell line (Pfeiffer or WSU-DLCL2) was cultured in a RPMI-1640 medium containing 10% inactivated Fetal Bovine Serum, 100 U/mL penicillin, and 100 μg/mL streptomycin, and incubated in an incubator with 5% carbon dioxide at 37° C. under a saturated humidity condition, and passaged every 3-4 days.
A cell sudpension was prepared with a fresh cell medium, added to a 96-well cell culture plate at 8000 cells/well (Pfeiffer) or 2000 cells/well (WSU-DLCL2), and incubated in 5% carbon dioxide at 37° C. incubator overnight. On the day of the experiment, the EZH2 test compounds (final concentration: 20000, 2000, 200, 20, 2, 0.2 nM) were added into the experimental wells for 3 parallel wells per group. A control well with the medium alone but without cells was set up to obtain the background luminescent value. The cell culture plate was incubated in an incubator with 5% carbon dioxide at 37° C. for 5 days.
After the compounds were applied to the cells for 5 days, the cell culture plate was placed at room temperature for 30 minutes, then a CellTiter-Glo reagent equal to the volume of cell culture medium was added to each well. The contents were mixed on a shaker for 10 minutes, and the […] signal values were recorded. The cell growth inhibition rate was calculated, and the formula was: cell growth inhibiton rate=[(negative control control−experimental group)/(negative control group−background luminescent value)]×100%. The IC50 values (half inhibition rate IC50, i.e., a drug concentration that is required for 50% cell growth inhibition rate) were calculated by software from the cell growth inhibiton rate and the corresponding concentration.

The next data set addresses EZH2-A677G (Homo sapiens (Human), UniProt Q15910, A677G). Kind of data set: EZH2-A677G mutant enzyme activity assay (HTRF). The class given is biochemical. Conditions: read-out: IC50 for inhibiting the activity of enzyme EZH2-A677G. In general terms: In TR-FRET formats the signal depends on donor and acceptor labels being close together.
The next data set has as its target EZH2-Y641F (Homo sapiens (Human), UniProt Q15910, Y641F). Kind of data set: EZH2-Y641F mutant enzyme activity assay (HTRF). In kind it is biochemical. Conditions: read-out: IC50 for inhibiting the activity of enzyme EZH2-Y641F. The procedure:
Histone H3 biotin labeling and S-adenosyl methionine were respectively diluted to 50 nM and 50 μM with a kinase buffer, then added to a 384-well plate at 4 μl/well. The test compound was diluted with a kinase buffer (it was diluted from the highest concentration 30 μM in 10 fold concentration gradient to 7 concentration points), then added to the 384-well microtiter plate at 4 μl/well. The plate was incubated at room temperature for 2 hours. Histone H3K27 Me3 monoclonal antibody and Streptavidin-XL665 were diluted to 30 nM and 500 nM by HTRF detection buffer, then added to the 384-well microplate at 10 µl/well and incubated for 1 hour. A well without an EZH2 enzyme and a compound was used as a negative control, and a well with an EZH2 enzyme but without a compound was used as a positive control. […] The compound logarithm concentration vs the inhibition percentage relative to the positive control well was plotted using GraphPad Prism, then the IC50 values were calculated.

Sequence of EZH2-Y641F (Q15910 whole entry Y641F): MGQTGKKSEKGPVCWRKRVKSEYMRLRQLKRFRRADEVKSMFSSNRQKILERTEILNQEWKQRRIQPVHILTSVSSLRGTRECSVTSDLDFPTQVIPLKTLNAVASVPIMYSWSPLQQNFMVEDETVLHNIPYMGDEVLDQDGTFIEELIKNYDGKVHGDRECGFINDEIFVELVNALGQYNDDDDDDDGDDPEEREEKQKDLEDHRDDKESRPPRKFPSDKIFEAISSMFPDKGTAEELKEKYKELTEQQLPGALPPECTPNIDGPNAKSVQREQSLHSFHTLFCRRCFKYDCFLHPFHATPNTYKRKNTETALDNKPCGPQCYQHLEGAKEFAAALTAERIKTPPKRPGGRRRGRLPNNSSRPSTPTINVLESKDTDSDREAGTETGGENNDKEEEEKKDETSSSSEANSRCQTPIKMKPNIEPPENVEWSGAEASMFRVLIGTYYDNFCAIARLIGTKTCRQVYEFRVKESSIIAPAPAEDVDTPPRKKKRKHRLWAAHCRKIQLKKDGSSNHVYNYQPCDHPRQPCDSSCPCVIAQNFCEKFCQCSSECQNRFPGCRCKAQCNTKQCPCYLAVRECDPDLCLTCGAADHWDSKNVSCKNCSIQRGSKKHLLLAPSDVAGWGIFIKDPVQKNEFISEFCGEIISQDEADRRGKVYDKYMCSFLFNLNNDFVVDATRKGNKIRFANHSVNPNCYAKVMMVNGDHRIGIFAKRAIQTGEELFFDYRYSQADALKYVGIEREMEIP
Sequence of EZH2-Y641F (O75530 whole entry partner): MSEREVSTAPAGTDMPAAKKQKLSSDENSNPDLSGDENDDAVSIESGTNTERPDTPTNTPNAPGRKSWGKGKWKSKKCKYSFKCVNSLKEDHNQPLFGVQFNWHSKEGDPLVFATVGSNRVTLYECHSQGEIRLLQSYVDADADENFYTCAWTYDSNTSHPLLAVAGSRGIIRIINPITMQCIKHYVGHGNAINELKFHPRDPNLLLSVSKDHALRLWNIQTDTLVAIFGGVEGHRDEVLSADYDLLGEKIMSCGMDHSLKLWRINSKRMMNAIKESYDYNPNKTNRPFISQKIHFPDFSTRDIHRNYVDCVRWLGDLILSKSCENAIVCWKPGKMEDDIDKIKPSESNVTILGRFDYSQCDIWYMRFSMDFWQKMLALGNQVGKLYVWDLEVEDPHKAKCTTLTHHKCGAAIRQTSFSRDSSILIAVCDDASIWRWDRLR
Sequence of EZH2-Y641F (Q15022 whole entry partner): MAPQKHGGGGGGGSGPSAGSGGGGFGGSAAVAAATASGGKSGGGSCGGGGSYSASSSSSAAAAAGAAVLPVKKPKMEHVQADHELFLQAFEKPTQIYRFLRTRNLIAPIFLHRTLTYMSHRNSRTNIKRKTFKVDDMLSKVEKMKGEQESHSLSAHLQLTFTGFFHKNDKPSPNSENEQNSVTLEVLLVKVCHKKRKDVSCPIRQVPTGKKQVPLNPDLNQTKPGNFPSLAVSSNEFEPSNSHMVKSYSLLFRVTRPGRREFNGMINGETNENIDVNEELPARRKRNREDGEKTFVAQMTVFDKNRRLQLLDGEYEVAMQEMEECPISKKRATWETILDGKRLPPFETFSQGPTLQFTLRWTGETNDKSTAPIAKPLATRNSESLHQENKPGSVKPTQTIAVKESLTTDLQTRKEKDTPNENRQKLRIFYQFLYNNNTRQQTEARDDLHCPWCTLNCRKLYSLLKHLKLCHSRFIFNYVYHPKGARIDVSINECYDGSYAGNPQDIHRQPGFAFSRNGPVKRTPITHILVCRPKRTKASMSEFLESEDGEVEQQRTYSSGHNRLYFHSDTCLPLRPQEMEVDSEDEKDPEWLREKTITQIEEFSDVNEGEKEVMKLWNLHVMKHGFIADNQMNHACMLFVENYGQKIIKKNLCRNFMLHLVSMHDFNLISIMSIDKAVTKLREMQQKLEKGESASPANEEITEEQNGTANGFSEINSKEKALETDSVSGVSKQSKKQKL
Sequence of EZH2-Y641F (Q09028 whole entry partner): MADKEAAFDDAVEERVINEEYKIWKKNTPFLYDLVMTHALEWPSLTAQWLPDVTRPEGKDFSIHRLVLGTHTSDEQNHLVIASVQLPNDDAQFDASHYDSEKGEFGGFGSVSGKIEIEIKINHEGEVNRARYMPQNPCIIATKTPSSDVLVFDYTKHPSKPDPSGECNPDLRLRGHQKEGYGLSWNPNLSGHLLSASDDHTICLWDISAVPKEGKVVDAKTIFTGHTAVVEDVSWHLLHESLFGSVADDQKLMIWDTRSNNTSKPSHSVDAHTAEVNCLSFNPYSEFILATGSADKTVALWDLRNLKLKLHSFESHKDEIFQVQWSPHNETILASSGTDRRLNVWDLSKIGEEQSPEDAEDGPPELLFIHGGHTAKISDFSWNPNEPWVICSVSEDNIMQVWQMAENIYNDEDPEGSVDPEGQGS
Sequence of EZH2-Y641F (Q6ZN18 whole entry partner): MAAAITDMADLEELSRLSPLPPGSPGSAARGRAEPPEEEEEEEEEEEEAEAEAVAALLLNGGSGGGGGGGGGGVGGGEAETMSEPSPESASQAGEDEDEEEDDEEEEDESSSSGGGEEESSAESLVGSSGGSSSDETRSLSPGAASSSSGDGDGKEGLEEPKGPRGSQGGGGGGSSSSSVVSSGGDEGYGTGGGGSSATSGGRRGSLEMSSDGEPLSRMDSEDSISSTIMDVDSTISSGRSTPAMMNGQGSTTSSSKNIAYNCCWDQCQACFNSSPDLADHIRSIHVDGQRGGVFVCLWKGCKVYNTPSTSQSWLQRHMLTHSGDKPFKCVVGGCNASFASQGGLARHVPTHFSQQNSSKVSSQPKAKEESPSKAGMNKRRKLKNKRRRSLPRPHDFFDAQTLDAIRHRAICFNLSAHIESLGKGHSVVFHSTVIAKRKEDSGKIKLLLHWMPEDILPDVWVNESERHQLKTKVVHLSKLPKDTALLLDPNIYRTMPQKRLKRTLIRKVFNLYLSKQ
Sequence of EZH2-A677G (Q15910 whole entry A677G): as the sequence (Q15910 whole entry Y641F) above, with F641Y, A677G counted along it
Sequence of EZH2-A677G (O75530 whole entry partner): as the sequence (O75530 whole entry partner) above
Sequence of EZH2-A677G (Q15022 whole entry partner): as the sequence (Q15022 whole entry partner) above
Sequence of EZH2-A677G (Q09028 whole entry partner): as the sequence (Q09028 whole entry partner) above
Sequence of EZH2-A677G (Q6ZN18 whole entry partner): as the sequence (Q6ZN18 whole entry partner) above

As a reminder, the IC50 is the concentration needed to halve the response being measured. For orientation: AUC means the area under the concentration-time curve, a measure of exposure. As a reminder, the MRT is the average time that molecules of a dose stay in the body. By Cmax is commonly meant the peak of the concentration-time curve. In the case of `CCc1c(N(CC)C2CCOCC2)cc2oc(C3CCN(C(C)C)CC3)cc2c1C(=O)NCc1c(C)cc(C)[nH]c1=O` [Example 9, N-((4,6-Dimethyl-2-oxo-1,2-dihydropyridin-3-yl)methyl)-5-ethyl-6-(ethyl(tetrahydro-2H-pyran-4-yl)amino)-2-(1-isopropylpiperidin-4-yl)benzofuran-4-carboxamide], the IC50 in the data set on Pfeiffer cells was 7 nM; in the data set with WSU-DLCL2 cells, 55 nM; on EZH2-A677G, 5.7 nM; at EZH2-Y641F, 4 nM. The Vd/F in data set [1] (read-out: Apparent Distribution Volume Vz/F) was found to be 35.1 ± 37.1 L/kg. The AUC in data set [1] (read-out: Area Under Curve AUC) is 274 ± 180 ng·h/mL. Besides, in data set [1] (read-out: Clearance CL/F), the CL/F was 562 ± 592 mL/min/kg. Besides, the half-life in data set [1] (read-out: Half-Life t1/2 (converted)) was 0.719 ± 0.15 h. Also, the MRT in data set [1] (read-out: Mean Residence Time MRT) was found to be 3.48 ± 0.107 h. Also, the Cmax in data set [1] (read-out: Plasma Conc. Cmax) was 79.1 ± 50.7 ng/mL.

`CCN(c1cc2occc2c(C(=O)NCc2c(OC)cc(C)[nH]c2=O)c1C)C1CCN(S(C)(=O)=O)CC1` [Example 25, 6-(Ethyl(1-(methylsulfonyl)piperidin-4-yl)amino)-N-((4-methoxy-6-methyl-2-oxo-1,2-dihydropyridin-3-yl)methyl)-5-methylbenzofuran-4-carboxamide]: the IC50 with Pfeiffer cells was found to be 15 nM; in the data set with WSU-DLCL2 cells it was 160 nM; at EZH2-A677G it was 0.9 nM; on EZH2-Y641F it was 3.2 nM.
